Results: ChEMBL document CHEMBL6092141, “Discovery of a proteolysis targeting chimera (PROTAC) as a potent regulator of FOXP3” (2024)
Active and inactive are the calls of the source. The calls are words filed in the database; no cut-off is given here. Residues, ends and D or L forms follow the SMILES beside them. *: point of attachment. X1 = Cc1ncsc1-c1ccc(CNC(=O)[C@@H]2C[C@@H](O)CN2C(=O)[C@@H](NC(=O)COCCOCCNC(=O)CCCCCc2cn(CCCC(=O)*)nn2)C(C)(C)C)cc1; X2 = Cc1ncsc1-c1ccc(CNC(=O)[C@@H]2C[C@@H](O)CN2C(=O)[C@@H](NC(=O)CCOCCOCCc2cn(CCCC(=O)*)nn2)C(C)(C)C)cc1; X3 = Cc1ncsc1-c1ccc(CNC(=O)[C@@H]2C[C@@H](O)CN2C(=O)[C@@H](NC(=O)CCCCCc2cn(CCCC(=O)*)nn2)C(C)(C)C)cc1

Key:
[1] = test system: HEK293T; assay: Inhibition of HA-tagged Foxp3 (unknown origin) nuclear translocation transfected in a HEK293T cells at 50 to 100 uM incubated for 24 hrs by DAPI staining based confocal microscopic analysis; format: cell-based; settings: Homo sapiens, dose 50-100 µM
[2] = test system: HeLa; assay: Inhibition of HA-tagged Foxp3 (unknown origin) nuclear translocation transfected in human HeLa cells at 1 uM incubated for 24 hrs by DAPI staining based confocal microscopic analysis; format: cell-based
[3] = target: T1, von Hippel-Lindau disease tumor suppressor/Forkhead box protein P3 (Homo sapiens) (UniProt P40337+Q9BZS1); assay: PROTAC activity at VHL/Foxp3 (unknown origin) transfected in HEK293T cells assessed as induction of Foxp3 degradation by measuring reduction in protein level at 10 to 1000 nM incubated for 24 hrs by Western blot analysis; format: cell-based; settings: dose 10-1000 nM
[4] = Immunomodulatory activity in anti-CD3/CD28-induced C57BL/6 mouse CD4+ T cells isolated from spleen/lymph nodes assessed as reduction in foxp3+ CD4+ IL2/TGF-beta induced T regulatory cells at 4 uM incubated for 72 hrs by fluorescence activated cell sorting analysis (reference value: 32.7 %); format: functional; set-up: scale not given: the % may be the effect or the level left
[5] = Immunomodulatory activity in anti-CD3/CD28-induced C57BL/6 mouse CD4+ T cells isolated from spleen/lymph nodes assessed as reduction in foxp3+ CD4+ IL2/TGF-beta induced T regulatory cells at 1 uM incubated for 48 hrs by fluorescence activated cell sorting analysis (reference value: 6.56 %); format: functional; set-up: scale not given: the % may be the effect or the level left
[6] = test system: CD4+ T cell; assay: Immunomodulatory activity in anti-CD3/CD28-induced C57BL/6 mouse CD4+ T cells isolated from spleen/lymph nodes assessed as reduction in Foxp3 mRNA expression in IL2/TGF-beta induced T regulatory cells measured after 72 hrs by RT-qPCR analysis; format: functional, cell-based
[7] = Immunomodulatory activity in anti-CD3/CD28-induced C57BL/6 mouse CD4+ T cells isolated from spleen/lymph nodes assessed as reduction in foxp3+ CD4+ IL2/TGF-beta induced T regulatory cells at 2 uM incubated for 48 hrs by fluorescence activated cell sorting analysis (reference value: 6.56 %); format: functional; set-up: scale not given: the % may be the effect or the level left
[8] = test system: CD4+ T cell; assay: Immunomodulatory activity in anti-CD3/CD28-induced C57BL/6 mouse CD4+ T cells isolated from spleen/lymph nodes assessed as increase in IFN-gamma mRNA expression in IL2/TGF-beta induced T regulatory cells measured after 72 hrs by RT-qPCR analysis; format: functional, cell-based
[9] = target: T1, von Hippel-Lindau disease tumor suppressor/Forkhead box protein P3 (Homo sapiens); assay: PROTAC activity at VHL/Foxp3 (unknown origin) transfected in HEK293T cells assessed as induction of Foxp3 degradation by measuring reduction in protein level at 3 uM incubated for 48 hrs in presence of MG132 by Western blot analysis; format: cell-based
[10] = Immunomodulatory activity in anti-CD3/CD28-induced C57BL/6 mouse CD4+ T cells isolated from spleen/lymph nodes assessed as reduction in foxp3+ CD4+ IL2/TGF-beta induced T regulatory cells at 3 uM incubated for 72 hrs by fluorescence activated cell sorting analysis (reference value: 32.7 %); format: functional; set-up: scale not given: the % may be the effect or the level left
[11] = test system: HEK293T; assay: Inhibition of HA-tagged Foxp3 (unknown origin) nuclear translocation transfected in a HEK293T cells at 1 to 3 uM incubated for 24 hrs by DAPI staining based confocal microscopic analysis; format: cell-based; settings: Homo sapiens, dose 1-3 µM
[12] = target: T1, von Hippel-Lindau disease tumor suppressor/Forkhead box protein P3 (Homo sapiens); assay: PROTAC activity at VHL/Foxp3 (unknown origin) transfected in HEK293T cells assessed as induction of Foxp3 degradation by measuring reduction in protein level at 1 uM measured after 24 to 48 hrs by Western blot analysis; format: cell-based; settings: time 24-48 hrs
[13] = test system: CD4+ T cell; assay: Immunomodulatory activity in anti-CD3/CD28-induced C57BL/6 mouse CD4+ T cells isolated from spleen/lymph nodes assessed as reduction in Foxp3 protein expression in IL2/TGF-beta induced T regulatory cells at 1 to 4 uM measured after 72 hrs by Western blot analysis; format: functional, cell-based; settings: dose 1-4 µM
[14] = Immunomodulatory activity in anti-CD3/CD28-induced C57BL/6 mouse CD4+ T cells isolated from spleen/lymph nodes assessed as reduction in foxp3+ CD4+ IL2/TGF-beta induced T regulatory cells at 2 uM incubated for 72 hrs by fluorescence activated cell sorting analysis (reference value: 32.7 %); format: functional; set-up: scale not given: the % may be the effect or the level left
[15] = Immunomodulatory activity in anti-CD3/CD28-induced C57BL/6 mouse CD4+ T cells isolated from spleen/lymph nodes assessed as reduction in foxp3+ CD4+ IL2/TGF-beta induced T regulatory cells at 1 uM incubated for 72 hrs by fluorescence activated cell sorting analysis (reference value: 32.7 %); format: functional; set-up: scale not given: the % may be the effect or the level left
[16] = Immunomodulatory activity in anti-CD3/CD28-induced C57BL/6 mouse CD4+ T cells isolated from spleen/lymph nodes assessed as reduction in foxp3+ CD4+ IL2/TGF-beta induced T regulatory cells at 4 uM incubated for 48 hrs by fluorescence activated cell sorting analysis (reference value: 6.56 %); format: functional; set-up: scale not given: the % may be the effect or the level left
[17] = target: T1, von Hippel-Lindau disease tumor suppressor/Forkhead box protein P3 (Homo sapiens); assay: PROTAC activity at VHL/Foxp3 (unknown origin) transfected in HEK293T cells assessed as induction of Foxp3 degradation by measuring reduction in protein level at 500 to 1000 nM incubated for 24 hrs by Western blot analysis; format: cell-based; settings: dose 500-1000 nM
[18] = test system: CD4+ T cell; assay: Immunomodulatory activity in anti-CD3/CD28-induced C57BL/6 mouse CD4+ T cells isolated from spleen/lymph nodes assessed as increase in IL2 mRNA expression in IL2/TGF-beta induced T regulatory cells measured after 72 hrs by RT-qPCR analysis; format: functional, cell-based

T1 sequence (P40337 whole entry, looked up): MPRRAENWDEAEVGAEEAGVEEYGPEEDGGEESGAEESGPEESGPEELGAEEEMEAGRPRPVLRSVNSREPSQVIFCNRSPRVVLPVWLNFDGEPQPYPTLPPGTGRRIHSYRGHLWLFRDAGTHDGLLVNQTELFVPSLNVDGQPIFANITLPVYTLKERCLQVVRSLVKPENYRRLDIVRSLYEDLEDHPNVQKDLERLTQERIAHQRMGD
T1 sequence (Q9BZS1 whole entry, looked up): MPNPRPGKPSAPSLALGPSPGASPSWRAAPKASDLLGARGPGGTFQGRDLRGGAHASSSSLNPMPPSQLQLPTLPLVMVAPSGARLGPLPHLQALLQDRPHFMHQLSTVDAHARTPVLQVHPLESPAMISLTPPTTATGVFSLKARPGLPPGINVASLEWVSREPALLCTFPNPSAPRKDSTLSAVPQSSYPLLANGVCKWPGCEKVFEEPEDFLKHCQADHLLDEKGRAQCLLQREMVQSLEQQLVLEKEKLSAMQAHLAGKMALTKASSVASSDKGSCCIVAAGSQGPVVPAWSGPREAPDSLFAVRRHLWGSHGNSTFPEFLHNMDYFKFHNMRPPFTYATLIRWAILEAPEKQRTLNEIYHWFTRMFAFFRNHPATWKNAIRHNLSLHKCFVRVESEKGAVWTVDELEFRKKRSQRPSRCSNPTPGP

For H-RDFQSFRKMWPFFAM-OH, the inhibition [1] was “Active”.

For `CSCC[C@H](NC(=O)[C@H](C)NC(=O)[C@H](Cc1ccccc1)NC(=O)[C@H](Cc1ccccc1)NC(=O)[C@@H]1CCCN1C(=O)[C@H](Cc1c[nH]c2ccccc12)NC(=O)[C@H](CCSC)NC(=O)[C@H](CCCCN)NC(=O)[C@H](CCCNC(=N)N)NC(=O)[C@H](Cc1ccccc1)NC(=O)[C@H](CO)NC(=O)[C@H](CCC(N)=O)NC(=O)[C@H](Cc1ccccc1)NC(=O)[C@H](CC(=O)O)NC(=O)[C@H](CCCNC(=N)N)NC(=O)CCCn1cc(CCCCCC(=O)N[C@H](C(=O)N2C[C@H](O)C[C@H]2C(=O)NCc2ccc(-c3scnc3C)cc2)C(C)(C)C)nn1)C(N)=O` (X3-RDFQSFRKMWPFFAM-NH2), the inhibition [2] was “inactive” and the Activity [3] was “inactive”.

For `CSCC[C@H](NC(=O)[C@H](C)NC(=O)[C@H](Cc1ccccc1)NC(=O)[C@H](Cc1ccccc1)NC(=O)[C@@H]1CCCN1C(=O)[C@H](Cc1c[nH]c2ccccc12)NC(=O)[C@H](CCSC)NC(=O)[C@H](CCCCN)NC(=O)[C@H](CCCNC(=N)N)NC(=O)[C@H](Cc1ccccc1)NC(=O)[C@H](CO)NC(=O)[C@H](CCC(N)=O)NC(=O)[C@H](Cc1ccccc1)NC(=O)[C@H](CC(=O)O)NC(=O)[C@H](CCCNC(=N)N)NC(=O)CCCn1cc(CCOCCOCCC(=O)N[C@H](C(=O)N2C[C@H](O)C[C@H]2C(=O)NCc2ccc(-c3scnc3C)cc2)C(C)(C)C)nn1)C(N)=O` (X2-RDFQSFRKMWPFFAM-NH2), the inhibition [2] was “inactive” and the Activity [3] was “inactive”.

With `CSCC[C@H](NC(=O)[C@H](C)NC(=O)[C@H](Cc1ccccc1)NC(=O)[C@H](Cc1ccccc1)NC(=O)[C@@H]1CCCN1C(=O)[C@H](Cc1c[nH]c2ccccc12)NC(=O)[C@H](CCSC)NC(=O)[C@H](CCCCN)NC(=O)[C@H](CCCNC(=N)N)NC(=O)[C@H](Cc1ccccc1)NC(=O)[C@H](CO)NC(=O)[C@H](CCC(N)=O)NC(=O)[C@H](Cc1ccccc1)NC(=O)[C@H](CC(=O)O)NC(=O)[C@H](CCCNC(=N)N)NC(=O)CCCn1cc(CCCCCC(=O)NCCOCCOCC(=O)N[C@H](C(=O)N2C[C@H](O)C[C@H]2C(=O)NCc2ccc(-c3scnc3C)cc2)C(C)(C)C)nn1)C(N)=O` (X1-RDFQSFRKMWPFFAM-NH2) the Activity [4] was 15.6%, the Activity [5] was 6.08% and the Activity [6] was “Active”. For the same compound, the Activity [7] was 5.03%, the Activity [8] was “Active” and the inhibition [2] was “Active”. The Activity [9] was “inactive”, the Activity [10] was 20.2% and the inhibition [11] was “Active; Comparable Effect To 100 Um Of P60 Peptide Observed At 1 Um”. For the same compound, the Activity [12] was “Active”, the Activity [13] was “Active” and the Activity [14] was 25.8%. For the same compound, the Activity [15] was 28.8%, the Activity [16] was 4.87% and the Activity [17] was “Active”. The Activity [18] was “Active”.
